Assay results: article PMC5218480 (PLoS ONE, 2017)

Test system: MV-4-11 cells
Assay: Gene expression microarray analysis (Affymetrix PrimeView) and GSEA
Format: cell-based, human
Set-up: RFU PODN (11730768_x_at) / Fold change /veh PODN (11730768_x_at) / RFU LINC00158 (11744669_a_at) / Fold change /veh LINC00158 (11744669_a_at) / RFU DUSP10 (11751237_a_at) / Fold change /veh DUSP10 (11751237_a_at) / RFU ID3 (11757404_x_at) / Fold change /veh ID3 (11757404_x_at) / RFU PLEKHG5 (11737974_s_at) / Fold change /veh PLEKHG5 (11737974_s_at) / RFU LRRC4B (11730491_at) / Fold change /veh LRRC4B (11730491_at) / RFU GIMAP4 (11747438_a_at) / Fold change /veh GIMAP4 (11747438_a_at) / RFU KRT8 (11758183_x_at) / Fold change /veh KRT8 (11758183_x_at) / RFU CNN1 (11734310_a_at) / Fold change /veh CNN1 (11734310_a_at) / RFU VPS37D (11726825_at) / Fold change /veh VPS37D (11726825_at) / RFU C10orf10 (11716522_x_at) / Fold change /veh C10orf10 (11716522_x_at) / RFU KIR2DL2 /// KIR2DL4 /// KIR2DL5A /// KIR2DL5B /// KIR2DS1 /// KIR2DS2 /// KIR2DS3 /// KIR2DS4 /// KIR3DL3 /// KIR3DL3 /// KIR3DS1 (11738374_at) / Fold change /veh KIR2DL2 /// KIR2DL4 /// KIR2DL5A /// KIR2DL5B /// KIR2DS1 /// KIR2DS2 /// KIR2DS3 /// KIR2DS4 /// KIR3DL3 /// KIR3DL3 /// KIR3DS1 (11738374_at) / RFU C1QL1 (11718748_at) / Fold change /veh C1QL1 (11718748_at) / RFU TMPRSS4 (11747572_a_at) / Fold change /veh TMPRSS4 (11747572_a_at) / RFU HAMP (11756126_x_at) / Fold change /veh HAMP (11756126_x_at) / RFU RNFT2 (11725882_a_at) / Fold change /veh RNFT2 (11725882_a_at) / RFU NR4A2 (11747474_a_at) / Fold change /veh NR4A2 (11747474_a_at) / RFU ABCC12 (11746883_a_at) / Fold change /veh ABCC12 (11746883_a_at) / RFU TMEM136 (11760407_x_at) / Fold change /veh TMEM136 (11760407_x_at) / RFU CLDN22 /// WWC2 (11732394_at) / Fold change /veh CLDN22 /// WWC2 (11732394_at) / RFU HLA-DPB1 (11760878_x_at) / Fold change /veh HLA-DPB1 (11760878_x_at) / RFU SPINT1 (11716480_a_at) / Fold change /veh SPINT1 (11716480_a_at) / RFU GAP43 (11754022_s_at) / Fold change /veh GAP43 (11754022_s_at) / RFU A4GNT (11735810_at) / Fold change /veh A4GNT (11735810_at) / RFU PRB3 (11715151_x_at) / Fold change /veh PRB3 (11715151_x_at) / RFU TUBB4B (11761932_at) / Fold change /veh TUBB4B (11761932_at) / RFU CAPN14 (11732068_a_at) / Fold change /veh CAPN14 (11732068_a_at) / RFU TMCC2 (11721928_a_at) / Fold change /veh TMCC2 (11721928_a_at) / RFU IRGQ (11745062_a_at) / Fold change /veh IRGQ (11745062_a_at) / RFU FAM174B (11720279_a_at) / Fold change /veh FAM174B (11720279_a_at) / RFU TMPRSS4 (11748680_a_at) / Fold change /veh TMPRSS4 (11748680_a_at) / RFU FAM212B (11763350_a_at) / Fold change /veh FAM212B (11763350_a_at) / RFU PLEKHG5 (11743358_a_at) / Fold change /veh PLEKHG5 (11743358_a_at) / RFU ZSCAN30 (11745921_a_at) / Fold change /veh ZSCAN30 (11745921_a_at) / RFU CMKLR1 (11741424_a_at) / Fold change /veh CMKLR1 (11741424_a_at) / RFU LOC101060620 /// MAPK8IP1 (11723275_at) / Fold change /veh LOC101060620 /// MAPK8IP1 (11723275_at) / RFU SPTSSB (11747773_x_at) / Fold change /veh SPTSSB (11747773_x_at) / RFU PRSS12 (11739890_at) / Fold change /veh PRSS12 (11739890_at) / RFU BIN1 (11741810_x_at) / Fold change /veh BIN1 (11741810_x_at) / RFU WNT11 (11732464_a_at) / Fold change /veh WNT11 (11732464_a_at) / RFU C10orf10 (11716521_a_at) / Fold change /veh C10orf10 (11716521_a_at) / RFU C5orf56 (11738089_at) / Fold change /veh C5orf56 (11738089_at) / RFU CYB561 (11721691_x_at) / Fold change /veh CYB561 (11721691_x_at) / RFU ANKRD19P (11752326_a_at) / Fold change /veh ANKRD19P (11752326_a_at) / RFU OR2T12 /// OR2T33 /// OR2T8 (11738714_s_at) / Fold change /veh OR2T12 /// OR2T33 /// OR2T8 (11738714_s_at) / RFU VCAN (11748164_a_at) / Fold change /veh VCAN (11748164_a_at) / RFU JSRP1 (11732532_at) / Fold change /veh JSRP1 (11732532_at) / RFU KRTAP10-11 (11738290_x_at) / Fold change /veh KRTAP10-11 (11738290_x_at) / RFU MYO3A (11730013_a_at) / Fold change /veh MYO3A (11730013_a_at) / RFU EBF3 (11725865_a_at) / Fold change /veh EBF3 (11725865_a_at) / RFU CAMK2N1 (11719241_x_at) / Fold change /veh CAMK2N1 (11719241_x_at) / RFU C5orf56 (11738088_a_at) / Fold change /veh C5orf56 (11738088_a_at) / RFU OLFML3 (11715873_a_at) / Fold change /veh OLFML3 (11715873_a_at) / RFU LOC100653217 /// NTM (11731650_a_at) / Fold change /veh LOC100653217 /// NTM (11731650_a_at) / RFU MAPK11 (11762145_a_at) / Fold change /veh MAPK11 (11762145_a_at) / RFU FIZ1 (11724087_x_at) / Fold change /veh FIZ1 (11724087_x_at) / RFU OASL (11726364_x_at) / Fold change /veh OASL (11726364_x_at) / RFU SOX15 (11748057_x_at) / Fold change /veh SOX15 (11748057_x_at) / RFU CD79A (11719716_a_at) / Fold change /veh CD79A (11719716_a_at) / RFU HIST1H1D (11736915_at) / Fold change /veh HIST1H1D (11736915_at) / RFU CASKIN2 (11723855_a_at) / Fold change /veh CASKIN2 (11723855_a_at) / RFU LOC730098 (11760151_x_at) / Fold change /veh LOC730098 (11760151_x_at) / RFU OR4N2 (11742367_at) / Fold change /veh OR4N2 (11742367_at) / RFU PRRT2 (11749266_a_at) / Fold change /veh PRRT2 (11749266_a_at) / RFU SNX32 (11753110_a_at) / Fold change /veh SNX32 (11753110_a_at) / RFU CDHR5 (11726645_a_at) / Fold change /veh CDHR5 (11726645_a_at) / RFU RCAN1 (11760418_a_at) / Fold change /veh RCAN1 (11760418_a_at) / RFU FAM167A (11723789_a_at) / Fold change /veh FAM167A (11723789_a_at) / RFU FAM26E (11764081_at) / Fold change /veh FAM26E (11764081_at) / RFU ISYNA1 (11749810_s_at) / Fold change /veh ISYNA1 (11749810_s_at) / RFU ACY1 (11761880_at) / Fold change /veh ACY1 (11761880_at) / RFU 11764098_at / Fold change /veh 11764098_at / RFU SAMD14 (11745864_x_at) / Fold change /veh SAMD14 (11745864_x_at) / RFU NPB (11741838_a_at) / Fold change /veh NPB (11741838_a_at) / RFU TMPRSS6 (11731388_a_at) / Fold change /veh TMPRSS6 (11731388_a_at) / RFU KRTAP10-2 (11738614_at) / Fold change /veh KRTAP10-2 (11738614_at) / RFU ARHGAP8 /// PRR5-ARHGAP8 (11727945_x_at) / Fold change /veh ARHGAP8 /// PRR5-ARHGAP8 (11727945_x_at) / RFU KRTAP5-7 /// NADSYN1 (11734609_at) / Fold change /veh KRTAP5-7 /// NADSYN1 (11734609_at) / RFU RASL12 (11751679_a_at) / Fold change /veh RASL12 (11751679_a_at) / RFU CDKN2B (11736163_a_at) / Fold change /veh CDKN2B (11736163_a_at) / RFU PRF1 (11729649_at) / Fold change /veh PRF1 (11729649_at) / RFU, ZNF638 /// ZNF638-IT1 / Fold change vs veh, ZNF638 /// ZNF638-IT1 / RFU, PANK3 / Fold change vs veh, PANK3 / RFU, SH3YL1 / Fold change vs veh, SH3YL1 / RFU, ZEB2 / Fold change vs veh, ZEB2 / RFU, NRIP1 / Fold change vs veh, NRIP1 / RFU, PTTG1IP / Fold change vs veh, PTTG1IP / RFU, CAPN2 / Fold change vs veh, CAPN2 / RFU, MED14 / Fold change vs veh, MED14 / RFU, SNORA58 / Fold change vs veh, SNORA58 / RFU, C1orf63 / Fold change vs veh, C1orf63 / RFU, LRRFIP1 / Fold change vs veh, LRRFIP1 / RFU, NDUFAF7 / Fold change vs veh, NDUFAF7 / RFU, SLC12A2 / Fold change vs veh, SLC12A2 / RFU, IBTK / Fold change vs veh, IBTK / RFU, ESF1 / Fold change vs veh, ESF1 / Fold change vs veh, TMEM50B / RFU, TAOK1 / Fold change vs veh, TAOK1 / RFU, ACBD3 / Fold change vs veh, ACBD3 / RFU, TMA16 / Fold change vs veh, TMA16 / RFU, RWDD3 / Fold change vs veh, RWDD3 / RFU, BCAT1 / Fold change vs veh, BCAT1 / RFU, EDEM3 / Fold change vs veh, EDEM3 / RFU, TMEM33 / Fold change vs veh, TMEM33 / RFU, WDR75 / Fold change vs veh, WDR75 / RFU, AHCTF1 / Fold change vs veh, AHCTF1 / RFU, TFRC / Fold change vs veh, TFRC / RFU, ZDHHC17 / Fold change vs veh, ZDHHC17 / RFU, NOM1 / Fold change vs veh, NOM1 / RFU, ARL8B / Fold change vs veh, ARL8B / RFU, ZBTB11 / Fold change vs veh, ZBTB11 / RFU, TAMM41 / Fold change vs veh, TAMM41 / RFU, KIAA1704 /// LOC100996395 / Fold change vs veh, KIAA1704 /// LOC100996395 / RFU, ING1 / Fold change vs veh, ING1 / RFU, TRMT61B / Fold change vs veh, TRMT61B / RFU, FUBP3 / Fold change vs veh, FUBP3 / RFU, TP53 / Fold change vs veh, TP53 / RFU, TNKS2 / Fold change vs veh, TNKS2 / RFU, ZFP14 / Fold change vs veh, ZFP14 / RFU, ACTR2 / Fold change vs veh, ACTR2 / RFU, PPP3R1 / Fold change vs veh, PPP3R1 / RFU, PIK3R1 / Fold change vs veh, PIK3R1 / RFU, HNRNPA1 / Fold change vs veh, HNRNPA1 / RFU, RNF170 / Fold change vs veh, RNF170 / RFU, ZNF28 / Fold change vs veh, ZNF28 / RFU, RNGTT / Fold change vs veh, RNGTT / RFU, OGT / Fold change vs veh, OGT / RFU, BRD1 / Fold change vs veh, BRD1 / RFU, MARS / Fold change vs veh, MARS / RFU, ZNF655 / Fold change vs veh, ZNF655 / RFU, FAHD1 / Fold change vs veh, FAHD1 / RFU, BDP1 / Fold change vs veh, BDP1 / RFU, LRRCC1 / Fold change vs veh, LRRCC1 / RFU, ARID1A / Fold change vs veh, ARID1A / RFU, ZNF146 / Fold change vs veh, ZNF146 / RFU, ZNF330 / Fold change vs veh, ZNF330 / RFU, GPN3 / Fold change vs veh, GPN3 / RFU, C9orf123 / Fold change vs veh, C9orf123 / RFU, N4BP2L2 / Fold change vs veh, N4BP2L2 / RFU, ARFIP1 / Fold change vs veh, ARFIP1 / RFU, FAM179B / Fold change vs veh, FAM179B / RFU, BCL10 / Fold change vs veh, BCL10 / RFU, UHRF1BP1L / Fold change vs veh, UHRF1BP1L / RFU, BET1 / Fold change vs veh, BET1 / RFU, CNOT2 / Fold change vs veh, CNOT2 / RFU, ZNF268 / Fold change vs veh, ZNF268 / Fold change vs veh, ZNF507 / RFU, DGCR2 / Fold change vs veh, DGCR2 / RFU, WDSUB1 / Fold change vs veh, WDSUB1 / Fold change vs veh, HSP90B1 /// MIR3652 / RFU, ADSS / Fold change vs veh, ADSS / RFU, GK / Fold change vs veh, GK / RFU, ZNF148 / Fold change vs veh, ZNF148 / RFU, TAF9 / Fold change vs veh, TAF9 / RFU, SLC1A5 / Fold change vs veh, SLC1A5 / RFU, SLMO2 / Fold change vs veh, SLMO2 / RFU, ABCC4 / Fold change vs veh, ABCC4 / RFU, LOC101060439 /// RAP1B / Fold change vs veh, LOC101060439 /// RAP1B / RFU, RFX7 / Fold change vs veh, RFX7 / RFU, GTPBP10 / Fold change vs veh, GTPBP10 / RFU, CNEP1R1 / Fold change vs veh, CNEP1R1 / RFU, BIVM-ERCC5 /// ERCC5 / Fold change vs veh, BIVM-ERCC5 /// ERCC5 / RFU, ILF3 / Fold change vs veh, ILF3 / RFU 11762660_at / Fold change /veh 11762660_at / RFU VCAN (11757783_s_at) / Fold change /veh VCAN (11757783_s_at) / RFU DDX43 (11728927_at) / Fold change /veh DDX43 (11728927_at) / RFU KRT8 (11758188_x_at) / Fold change /veh KRT8 (11758188_x_at) / RFU NKD1 (11759106_at) / Fold change /veh NKD1 (11759106_at) / RFU SRD5A1 (11742802_a_at) / Fold change /veh SRD5A1 (11742802_a_at) / RFU TPSAB1 /// TPSB2 (11721975_s_at) / Fold change /veh TPSAB1 /// TPSB2 (11721975_s_at) / RFU GSTM3 (11746129_a_at) / Fold change /veh GSTM3 (11746129_a_at) / RFU IL23R (11737362_x_at) / Fold change /veh IL23R (11737362_x_at) / RFU TMEM51 (11727254_a_at) / Fold change /veh TMEM51 (11727254_a_at) / RFU PIWIL2 (11732686_x_at) / Fold change /veh PIWIL2 (11732686_x_at) / RFU ORM1 (11744905_x_at) / Fold change /veh ORM1 (11744905_x_at) / RFU CCDC152 (11743942_at) / Fold change /veh CCDC152 (11743942_at) / RFU ECM1 (11717891_a_at) / Fold change /veh ECM1 (11717891_a_at) / RFU IL23R (11748794_a_at) / Fold change /veh IL23R (11748794_a_at) / RFU TNFAIP8L3 (11732012_x_at) / Fold change /veh TNFAIP8L3 (11732012_x_at) / RFU MBOAT4 (11741988_at) / Fold change /veh MBOAT4 (11741988_at) / RFU 11764193_at / Fold change /veh 11764193_at / RFU TMEM53 (11763286_at) / Fold change /veh TMEM53 (11763286_at) / RFU MAGEB2 (11727129_at) / Fold change /veh MAGEB2 (11727129_at) / RFU TMEM200A (11744735_a_at) / Fold change /veh TMEM200A (11744735_a_at) / RFU CCDC152 (11751479_a_at) / Fold change /veh CCDC152 (11751479_a_at) / RFU FAM211A (11726209_a_at) / Fold change /veh FAM211A (11726209_a_at) / RFU RGS16 (11746705_a_at) / Fold change /veh RGS16 (11746705_a_at) / RFU VCAN (11755009_s_at) / Fold change /veh VCAN (11755009_s_at) / RFU RHOB (11743442_s_at) / Fold change /veh RHOB (11743442_s_at) / RFU RGS16 (11720943_a_at) / Fold change /veh RGS16 (11720943_a_at) / RFU RGS16 (11720944_at) / Fold change /veh RGS16 (11720944_at) / RFU, VPS4B / Fold change vs veh, VPS4B / RFU, CREB1 / Fold change vs veh, CREB1 / RFU, DNAJC13 / Fold change vs veh, DNAJC13 / RFU, GNAQ / Fold change vs veh, GNAQ / RFU, CDK5R1 / Fold change vs veh, CDK5R1 / RFU, ZRANB3 / Fold change vs veh, ZRANB3 / RFU, CUL4A / Fold change vs veh, CUL4A / RFU, CCNY / Fold change vs veh, CCNY / RFU, UFL1 / Fold change vs veh, UFL1 / RFU, COG3 / Fold change vs veh, COG3 / RFU, DIAPH2 / Fold change vs veh, DIAPH2 / RFU, SKA2 / Fold change vs veh, SKA2 / RFU, AFF3 / Fold change vs veh, AFF3 / RFU, LMF1 / Fold change vs veh, LMF1 / RFU, IPO11 / Fold change vs veh, IPO11 / RFU, DFFB / Fold change vs veh, DFFB / RFU, FOXP1 / Fold change vs veh, FOXP1 / RFU, CARD8 / Fold change vs veh, CARD8 / RFU, STRN3 / Fold change vs veh, STRN3 / RFU, ADK / Fold change vs veh, ADK / RFU, RASSF2 / Fold change vs veh, RASSF2 / RFU, WIPF1 / Fold change vs veh, WIPF1 / RFU, LARP1B / Fold change vs veh, LARP1B / RFU, RASA1 / Fold change vs veh, RASA1 / RFU, RB1 / Fold change vs veh, RB1 / RFU, PPFIA1 / Fold change vs veh, PPFIA1 / RFU, MAT2A / Fold change vs veh, MAT2A / RFU, CCT5 / Fold change vs veh, CCT5 / RFU, WDR92 / Fold change vs veh, WDR92 / RFU, CUX1 / Fold change vs veh, CUX1 / RFU, TTC7A / Fold change vs veh, TTC7A / RFU, TMEM135 / Fold change vs veh, TMEM135 / RFU, DEPTOR / Fold change vs veh, DEPTOR / RFU, CPM / Fold change vs veh, CPM / RFU, DNAJB6 / Fold change vs veh, DNAJB6 / RFU, CACNA2D3 / Fold change vs veh, CACNA2D3 / RFU, DTX4 / Fold change vs veh, DTX4 / RFU, TFCP2 / Fold change vs veh, TFCP2 / RFU, GMCL1 /// GMCL1P1 / Fold change vs veh, GMCL1 /// GMCL1P1 / RFU, AEBP2 / Fold change vs veh, AEBP2 / RFU, SNHG1 /// SNORD22 /// SNORD25 /// SNORD26 /// SNORD27 /// SNORD28 /// SNORD29 /// SNORD31 / Fold change vs veh, SNHG1 /// SNORD22 /// SNORD25 /// SNORD26 /// SNORD27 /// SNORD28 /// SNORD29 /// SNORD31 / Fold change (Aza/veh), C12orf56 (ProbeSet 11735607_a_at) / Fold change (ACY-1035/veh), C12orf56 (ProbeSet 11735607_a_at) / Fold change (Aza/veh), FGFR1OP (ProbeSet 11751329_s_at) / Fold change (ACY-1035/veh), FGFR1OP (ProbeSet 11751329_s_at) / Fold change (Aza/veh), VPS36 (ProbeSet 11739960_a_at) / Fold change (ACY-1035/veh), VPS36 (ProbeSet 11739960_a_at) / RFU SYPL1 (11715823_x_at) / Fold change /veh SYPL1 (11715823_x_at) / RFU IGFBP7 (11715501_s_at) / Fold change /veh IGFBP7 (11715501_s_at) / RFU REEP3 (11722064_at) / Fold change /veh REEP3 (11722064_at) / RFU IGLL1 (11728026_x_at) / Fold change /veh IGLL1 (11728026_x_at): dose or concentration left out as unconfirmed
Details: MV-4-11 cells, 48 hours

In the case of `Nc1ncn([C@@H]2O[C@H](CO)[C@@H](O)[C@H]2O)c(=O)n1` [azacitidine], the “RFU NPB (11741838_a_at)” value is reported as 80.08 RFU.
